Source: US6310037A, “Method of controlling protozoan infections using syringomycin-family lipodepsipeptides” (Utah State University, priority 1999, dated 2001)
Values joined by “and” are separate entries in the source; they are usually repeats but may differ in a detail not shown here. Equal values may be shown once. Read-outs that look alike come from different tables or passages of the source. Where a SMILES comes first, the peptide text is derived from it. Bridges are numbered along the chain shown (N, C = ends). [ ]: non-standard residue; d: D form. The star is where a group is joined. Asp(3S-OH) = N[C@H](C(=O)O)[C@H](O)C(=O)O; Thr(4-Cl) = N[C@H](C(=O)O)[C@H](O)CCl; X1 = CCCCCCCCC[C@@H](O)CC(=O)*; dDab = NCC[C@@H](N)C(=O)O; Dab = NCC[C@H](N)C(=O)O; Dhb = C/C=C(\N)C(=O)O

Key:
MDBK cells = assay: Cytotoxicity of Syr-E to MDBK host cells (LDH assay, visual observation); format: cell-based, bovine; conditions: for Syr-E related cytotoxicity (LDH assay) compared to infected and untreated control: Syr-E 5, 10, 15, 20 μg/ml tested
Excerpt: (§1) Madin-Darby bovine kidney (MDBK) epithelial cells were also used to culture C. parvum in this study. Dulbecco's modified Eagle medium (DMEM) with 10% FBS was used for routine passage of MDBK cells purchased from American Type Collection for Culture (Rockville, Md.). Mycoplasma contamination was periodically checked with Hoechst staining (Uphoff et al., 1992). At confluence, MDBK cells were lifted from culture flasks with trypsin, enumerated, and redistributed to assay plates. Ninety-six well cell culture plates were employed to assess cytotoxicity of testing agents or the parasite or both to host cells using neutral red staining or lactic dehydrogenase (LDH) assay.
A volume of 10 μl/well culture supernatant was pipetted into a 96-well plate and mixed with 50 μl/well substrate solution containing 0.75 mM sodium pyruvate and 1 mg beta-NADH/ml. Following incubation at 37° C. for 30 min, the plate was added with 50 μl of 2,4-dinitrophenylhydrazine/well and kept at 25° C. for 20 min., and then the plate was added with a volume of 200 μl/well of 0.6 N NaOH, mixed well, and retained at 25° C. for 10 min. prior to being quantified by the Microplate Autoreader with a wavelength set at 515 nm.
(§2) A single concentration of Syr-E at 15 μg/ml was used to treat MDBK cells at pH 7 with C. parvum infection. Group 1 served as an infection control, receiving no Syr-E treatment. Syr-E was administered 1 day prior to parasite inoculation to groups 2, 4, and 5, at the inoculation day to groups 3-5, and 1 day post inoculation to groups 3 and 5, respectively. Following specified administration day(s), supernatants of corresponding wells containing Syr-E were removed and replaced with fresh DMEM base. Cytotoxicity was monitored using lactic dehydrogenase (LDH) assay on day 1 post inoculation. Three coverslips from each group were collected on days 2 and 5 post inoculation, were fixed, and were stained with the specific IFA, as described with reference to Example II.
Group 1 received neither Syr-E treatment nor inoculation and its cytotoxicity was set at 0%, as illustrated on day 2. Group 2 received only C. parvum inoculation serving as an infection control. Groups 3-6 received both the inoculation and Syr-E treatments at 5, 10, 15, and 20 μg/ml, respectively. Data in FIG. 4 are presented as the means +/- standard errors of the mean. […] Cytotoxicity of Syr-E to host cells was measured using LDH assay on both days 1 and 2 post inoculation. More (P<0.01) cytotoxicity was shown on day 1 post inoculation than day 2 post inoculation. […] Overall, more cytotoxicity was observed as Syr-E concentrations increased.

C. parvum = format: cell-based, C. parvum (bovine isolate); conditions: MDBK cells; for Infection % (Day 5) / Infection % (Day 2): % of untreated control; for Infection % (Day 2): mean ± SEM
Protocol: C. parvum (bovine isolate) oocysts used in this study were originally donated by the U.S. Department of Agriculture, Ames, Iowa. The oocysts were isolated from calf manure, preserved in 2.5% potassium dichromate at 4° C., and used within 3 months of purification. Oocysts were decontaminated by suspension in 20% (vol/vol) 1.05% sodium hypochlorite on ice for 20 minutes. Oocysts were then washed three times in Hanks' balanced salt solution ("HBSS") and once in RPMI 1640 (available from Sigma, St. Louis, Mo.). Release of sporozoites was achieved by incubating oocysts in an excystation solution consisting of 0.25% (wt/vol) trypsin (available from Sigma, St. Louis, Mo.) and 0.75% (wt/vol) taurodeoxycholic acid (available from Sigma) in HBSS. The resulting suspension was incubated at 37° C. for 45 minutes and microscopically observed to confirm sporozoite release. Sporozoites were completely separated from intact oocysts and oocyst walls by passage through sterile polycarbonate filters (3 micron pore size, available from Millipore Corp., Bedford, Mass.) twice prior to inoculation of bovine fallopian tube epithelial ("BFTE") cell monolayers.
Coverslips were removed at 5, 24, 48, 72, 96, and 120 hours from the inoculated wells containing monolayers of BFTE cells. The coverslips were washed in RPMI 1640, fixed in 100% methanol for 10 minutes, rinsed twice with 25 mM PBS, and stained with an indirect immunofluorescent assay (IFA) using monoclonal antibody (Mab) 5H11. Mab 5H11 specifically reacts with an antigen present on intermediate stages of C. parvum development. Coverslips were then mounted on glass slides and examined under oil immersion (1000×), using […] microscopy. Parasites were enumerated by counting all developmental stages of C. parvum present in a single scan (67 fields) through the center of each coverslip. The data were statistically compared for significance, using analysis of variance (Fischer's protected least-significant-difference test using a "STATVIEW" statistical analysis application developed by Abacus Concepts, Inc., Berkeley, Calif.).
as §1
For enumeration of C. parvum development in culture, 24-well plates were used with a sterile glass coverslip placed in each well. DMEM base was used at and post C. parvum inoculation.
as §2
Therefore, MDBK cells were employed to explore the inhibitory effect of Syr-E on C. parvum development in vitro, as shown in FIG. 3. […]

[1] = Group 2: Syr-E 15 μg/ml, 1 day, prior to inoculation, pH 7
[2] = Group 3: Syr-E 15 μg/ml, 2 days, at and post inoculation, pH 7
[3] = Group 4: Syr-E 15 μg/ml, 2 days, prior to and at inoculation, pH 7
[4] = Group 5: Syr-E 15 μg/ml, 3 days, prior to, at, and post inoculation, pH 7

C/C=C1\NC(=O)[C@H](Cc2ccccc2)NC(=O)[C@H](CCCNC(=N)N)NC(=O)[C@H](CCN)NC(=O)[C@@H](CCN)NC(=O)[C@@H](CO)NC(=O)[C@@H](NC(=O)C[C@H](O)CCCCCCCCC)COC(=O)[C@H]([C@H](O)CCl)NC(=O)[C@H]([C@H](O)C(=O)O)NC1=O [Syr-E, Syringomycin-E] (X1-S[dS][dDab][Dab]RF[Dhb][Asp(3S-OH)][Thr(4-Cl)]; ester 1-C)
visual cell damage (MDBK cells; Syr-E 15 μg/ml, MDBK cells, pH 7, Table 1 schedule): no visual cell damage observed
cytotoxicity by LDH assay, treatment schedule groups vs untreated control (MDBK cells; Syr-E 15 μg/ml, MDBK cells, pH 7, day 1 post inoculation, Table 1 schedule): failed to show significant differences between groups except group 3
visible cell damage on cell monolayers (MDBK cells; Syr-E 5-20 μg/ml, MDBK cells, pH 7.0): No obvious cell peeling or plaques formed on cell monolayers
Syr-E related cytotoxicity (LDH assay) compared to infected and untreated control (MDBK cells; pH 7.0, day 1 post inoculation): cytotoxicity appeared at 20 μg/ml on day 1 post inoculation
Syr-E related cytotoxicity (LDH assay) compared to infected and untreated control (MDBK cells; pH 7.0, day 2 post inoculation): 15 and 20 μg/ml on day 2 post inoculation
Infection % (Day 5) (C. parvum; [1]): 22% and 21.9%
Infection % (Day 2) (C. parvum; [1]): 13% and 12.9 ± 2.7%
Infection % (Day 5) (C. parvum; [2]): 11.7%
Infection % (Day 2) (C. parvum; [2]): 10.2 ± 2.1%
Infection % (Day 5) (C. parvum; [3]): 1.4%
Infection % (Day 2) (C. parvum; [3]): 1.1 ± 0.2%
Infection % (Day 5) (C. parvum; [4]): 1.0%
Infection % (Day 2) (C. parvum; [4]): 0.9 ± 0.1%
infection percentage of the untreated control (C. parvum; Syr-E 15 μg/ml, day 5 post inoculation): 14.7%
infection percentage (C. parvum; Syr-E 15 μg/ml, treatment prior to and at the inoculation, pH 7, day not given): approximately 1%
